In patent publication US20130210846A1, “USE OF NOVEL PAN-CDK INHIBITORS FOR TREATING TUMORS” (BAYER INTELLECTUAL PROPERTY GMBH, priority 2010, published 2013):

Key:
[1] = test system: NCI-H69 human small-cell lung tumor cells; assay: NCI-H69 human small-cell lung tumor model; type: in vivo, female NMRI nude mice
From the text: (§1) Tumor cells grown in cell culture were implanted subcutaneously in the flank of female or male NMRI nude mice. The treatment was started as soon as the tumors had grown to a size of approx. 20 mm^2 The study was ended as soon as the tumors in one of the groups reached a size of approx. 150 mm^2.
(§2) Vehicle group: treatment with solubilizer (40% PEG400/60% water)
(§3) The studies were designed for determining the initial response of the human tumor model to the treatment with the Exemplary compound 2-SI-2. Tumor growth inhibition in percent (TGI) was either calculated at the end of the studies from the tumor weights (TGITW) using the formula 100×[1−(tumor weight of the treatment group/tumor weight of the vehicle group)], or on the day the vehicle group had to be ended from the tumor areas (TGITA) using the formula 100×[1−(tumor area of the treatment group on the day of the measurement−tumor area of the treatment group prior to treatment)/(tumor area of the vehicle group on the day of the measurement−tumor area of the vehicle group prior to treatment)]. In the case of a tumor growth inhibition of more than 50%, the treatment was considered to have been effective.
Efficacy in the NCI-H69 human small-cell lung tumor model.
NCI-H69 human small-cell lung tumor cells implanted into female NMRI nude mice. […]

[2] = test system: NCI-H146 human small-cell lung tumor cells; assay: NCI-H146 human small-cell lung tumor model; type: in vivo, female NMRI nude mice
From the text: as §1, §2, §3
Efficacy in the NCI-H146 human small-cell lung tumor model.
NCI-H146 human small-cell lung tumor cells implanted into female NMRI nude mice. […]

[3] = test system: A2780-Cis cisplatin-resistant human ovarial tumor cells; assay: A2780-Cis human ovarial tumor model; type: in vivo, female NMRI nude mice
From the text: as §1, §2, §3
Efficacy in the A2780-Cis human ovarial tumor model.
Efficacy in the A2780-Cis human ovarial tumor model A2780-Cis cisplatin-resistant human ovarial tumor cells implanted into female NMRI nude mice.
• a) 0.20 mg/ml of Example 2-SI-2 in 40% (v/v) PEG 400 in water • b) 0.15 mg/ml of Example 2-SI-2 in 40% (v/v) PEG 400 in water • c) 0.17 mg/ml of Example 2-SI-2 in 40% (v/v) PEG 400 in water
• a) 2.0 mg/kg (6.0 mg/m^2), 1× per day. • b) 1.5 mg/kg (4.5 mg/m^2), 2× per day on 3 successive days, followed by 4 treatment-free days. • c) 1.7 mg/kg (5.1 mg/m^2), 2× per day on 3 successive days, followed by 4 treatment-free days.

OVCAR-8 = assay: Proliferation assay OVCAR-8; type: cell-based; details: Homo sapiens, 96 h; OVCAR-8, ovarial carcinoma; 4 days, crystal violet
Procedure: (§4) Cultivated human tumor cells (originally obtained from ATCC, HeLa-MaTu and HeLa-MaTu-ADR, originally obtained from Epo GmbH, Berlin, Germany) were plated at a density of 1000 to 5000 cells/measuring point, depending on the growth rate of the cell line, in a 96-well multititer plate in 200 μl of growth medium (DMEM/HAMS F12, 2 mM L-glutamine, 10% fetal calf serum). After 24 hours the cells of one plate (zero-point plate) were stained with crystal violet (see below), whereas the medium of the other plates was replaced with fresh culture medium (200 μl), to which the test substances had been added at various concentrations (0 μM, and in the range 0.01-30 μM; the final concentration of the solvent dimethyl sulfoxide was 0.5%). The cells were incubated for 4 days in the presence of the test substances. Cellular proliferation was determined by staining the cells with crystal violet: the cells were fixed by adding 20 μl/measuring point of an 11% glutaraldehyde solution for 15 min at room temperature. […] The extinction was determined photometrically at a wavelength of 595 nm. The percentage change in cell growth was calculated by standardization of the measured values to the extinction values of the zero-point plate (=0%) and the extinction of the untreated (0 μM) cells (=100%). […] The IC50 values were determined by means of a 4-parameter fit using the company's own software. […]

MOLM-13 = assay: Proliferation assay MOLM-13; type: cell-based; details: Homo sapiens, 96 h; MOLM-13, leukemia; 4 days, crystal violet
Procedure: as §4

## C[C@@H](O)[C@@H](C)Oc1nc(Nc2ccc(S(C)(=N)=O)cc2)ncc1C(F)(F)F (mixture of isomers) [Example 2-SI-2, (RS)—S-(4-{[4-{[(1R,2R)-2-Hydroxy-1-methylpropyl]oxy}-5-(trifluoromethyl)pyrimidin-2-yl]-amino}phenyl)-S-methylsulfoximide]
[1]; NCI-H69; a) 2.0 mg/kg oral 1× per day
  TGITA (tumor growth inhibition from tumor areas, measured on the day the vehicle group was ended): 99%
[1]; NCI-H69; b) 2.5 mg/kg oral 2× per day on 2 successive days, followed by 5 treatment-free days
  TGITA (tumor growth inhibition from tumor areas): 110%
[2]; NCI-H146; a) 2.0 mg/kg oral 1× per day
  TGITW (tumor growth inhibition from tumor weights): 95%
[2]; NCI-H146; b) 2.0 mg/kg oral 2× per day on 2 successive days, followed by 5 treatment-free days
  TGITW (tumor growth inhibition from tumor weights): 82%
[3]; A2780-Cis; a) 2.0 mg/kg oral 1× per day
  TGITW (tumor growth inhibition from tumor weights): 85%
[3]; A2780-Cis; b) 1.5 mg/kg oral 2× per day on 3 successive days, followed by 4 treatment-free days
  TGITW (tumor growth inhibition from tumor weights): 88%
[3]; A2780-Cis; c) 1.7 mg/kg oral 2× per day on 3 successive days, followed by 4 treatment-free days
  TGITW (tumor growth inhibition from tumor weights): 92%

## C[C@@H](O)[C@@H](C)Oc1nc(Nc2ccc(S(C)(=N)=O)cc2)ncc1C(F)(F)F (single isomer, unassigned) [Example 2-SI-2]
OVCAR-8
  IC50: 0.014 µM
MOLM-13
  IC50: 0.009 µM
